Experimental data reported in PMC5307958 (Scientific Reports, 2017).
“Also recorded” adds a separate entry of the source. Where a SMILES comes first, the peptide text is derived from it. Bridges are numbered along the chain shown (N, C = ends).

Key:
[1] = test system: slo-1 null worms (NM1968, js379); experiment: C. elegans crawl speed, slo-1 null; format: in vivo, Caenorhabditis elegans; settings: for effect on crawl speed (LS3 reduced crawl speed for wild type but not slo-1(null)): 30 min
Procedure: (§1) Worms were cultivated at 20 °C as described with OP50 bacteria. Worms cultured on plates contaminated with fungi or other bacteria were excluded from this study. The reference wild-type strain was N2 Bristol. The reference slo-1(null) strain and background for transgenic strains was NM1968, harboring the previously characterized null allele, js379[29]. Multi-site gateway technology (Invitrogen) was used to construct plasmids. […] of the native slo-1 promoter (Pslo-1) and the traditional unc-54 UTR were used in combination with slo-1a(cDNA)::mCherry for a rescue construct. To test rescue with the human BK channel, an hslo(ZERO isoform, cDNA)::mCherry version was constructed. The slo-1(+) and hslo(+) plasmids were injected at a concentration of 20 and 10 ng/μl, respectively. The co-injection reporter PCFJ90 (1.25 ng/μl) was used to ensure proper transformation of the arrays. As such, JPS345 carried vxEx345, an extrachromosomal array containing [Pslo-1::slo-1::mCherry::unc-54UTR,Pmyo-2::mCherry::unc-54UTR]. JPS340 carried […], an extrachromosomal array containing [Pslo-1::hslo::mCherry::unc-54UTR,Pmyo-2::mCherry::unc-54UTR].
Age-matched day one adults were cleaned of bacteria by letting them crawl around on an unseeded plate and then moved into a puddle of NGM or peptide dissolved in NGM on another unseeded plate. NGM and peptide treatment groups were always run in tandem to control for behavioral variance. While much shorter than typical drug applications in C. elegans, brief application in liquid was chosen to avoid potential catabolic by-products of incubation on metabolically active E. coli. Higher LS3 concentrations were used to compensate. The puddle was refreshed 1–2 times as needed, but let to fully absorb into the agar by 30 minutes. After 30 minutes, crawl behavior was videoed (Flea2 camera, Point Grey Research, Canada; StreamPix 3, NorPix, Canada). Copper rings restricted movement to a proscribed area. The worms were tracked offline using custom macros (Image-Pro, MediaCybernetics, Rockville, MD) for 1 minute to obtain crawl speed (cm/min). Group means ± SEM for peptide-treated vs. vehicle-treated controls were compared at each concentration with Student’s t-tests. Rescue analysis was completed with two-way ANOVA (SigmaPlot, San Jose, CA). Crawl speeds for the peptide treated groups were also normalized to the performance of yoked controls. Normalized group means±SEM were compared vs. slo-1 null performance by two-way ANOVA.

[2] = test system: slo-1(+) worm BK channel gene expressed in slo-1(null) worms; experiment: C. elegans crawl speed, slo-1(+) rescue on slo-1 null background; format: in vivo, Caenorhabditis elegans; settings: 750 μM LS3, 30 min; transgenic slo-1(+) on slo-1(null) background; vs. slo-1(null): p < 0.001, N = 78–162
Procedure: as §1
Age-matched day one adults were cleaned of bacteria by letting them crawl around on an unseeded plate and then moved into a puddle of NGM or peptide dissolved in NGM on another unseeded plate. […]

[3] = target: T1, human BKα channel (ZERO isoform) expressed in HEK293 cells (Homo sapiens, UniProt Q12791); experiment: Patch-clamp recording, inside-out patches, extracellular application; format: cell-based
T1 construct: expressed in transfected cells; host or cells: HEK293 (ATCC), transient transfection with Lipofectamine 2000; EGFP cotransfected as a separate marker
T1 sequence (Q12791 1-1178 isoform Q12791-5): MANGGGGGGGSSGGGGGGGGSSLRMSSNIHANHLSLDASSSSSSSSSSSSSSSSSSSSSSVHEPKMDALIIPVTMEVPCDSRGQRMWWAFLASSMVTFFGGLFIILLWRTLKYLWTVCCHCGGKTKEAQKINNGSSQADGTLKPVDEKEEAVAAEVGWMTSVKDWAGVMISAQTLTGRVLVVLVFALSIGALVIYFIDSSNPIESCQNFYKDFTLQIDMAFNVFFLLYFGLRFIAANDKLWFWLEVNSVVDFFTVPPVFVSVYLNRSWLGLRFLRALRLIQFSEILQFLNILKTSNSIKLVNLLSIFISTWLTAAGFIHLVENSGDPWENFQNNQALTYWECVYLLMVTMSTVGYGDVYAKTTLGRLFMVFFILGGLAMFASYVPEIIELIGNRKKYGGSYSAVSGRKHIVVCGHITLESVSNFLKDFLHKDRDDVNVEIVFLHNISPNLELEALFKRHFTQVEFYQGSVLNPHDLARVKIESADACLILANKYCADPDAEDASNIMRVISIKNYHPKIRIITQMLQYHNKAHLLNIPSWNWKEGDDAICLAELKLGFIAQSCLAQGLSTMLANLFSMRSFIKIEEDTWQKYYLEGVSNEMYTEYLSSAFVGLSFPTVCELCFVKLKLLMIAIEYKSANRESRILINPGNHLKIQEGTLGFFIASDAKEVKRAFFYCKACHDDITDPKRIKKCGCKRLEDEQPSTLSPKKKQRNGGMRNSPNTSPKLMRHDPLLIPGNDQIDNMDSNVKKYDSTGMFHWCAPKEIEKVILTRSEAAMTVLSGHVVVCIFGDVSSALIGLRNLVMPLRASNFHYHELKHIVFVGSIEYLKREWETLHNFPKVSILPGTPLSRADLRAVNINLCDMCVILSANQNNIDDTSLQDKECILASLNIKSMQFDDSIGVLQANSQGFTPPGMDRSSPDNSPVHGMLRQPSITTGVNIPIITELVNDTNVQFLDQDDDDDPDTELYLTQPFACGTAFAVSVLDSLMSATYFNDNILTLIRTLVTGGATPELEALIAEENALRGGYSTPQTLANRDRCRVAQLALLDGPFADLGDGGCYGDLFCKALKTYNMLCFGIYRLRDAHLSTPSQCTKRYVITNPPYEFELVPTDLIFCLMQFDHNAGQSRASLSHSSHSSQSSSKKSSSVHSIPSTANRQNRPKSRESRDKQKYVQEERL
Procedure: HEK293 cells (ATCC, Manassas, VA) were grown according to standard procedures. Cells were cultured at 37 °C in a 5% CO2 atmosphere in Dulbecco’s modified Eagle’s medium with L-glutamine, sodium pyruvate and 10% fetal bovine serum (Invitrogen). Cell lines were split with trypsin/EDTA in Hanks’ balanced salt solution (Invitrogen) up to 25–30 cycles. For phage display, stable lines stably expressed rSK2 or hBKα ZERO isoform. Cells were transfected (Lipofectamine 2000, Invitrogen) with hGlyRα1 and used 48 hours later. For electrophysiological recordings, cells were transfected with hBKα ZERO isoform. Enhanced green fluorescent protein (EGFP) was cotransfected as a marker. Electrophysiological recordings were made 16–72 h after transfection. Although the profile of BK channel composition varies from tissue to tissue, the ZERO BK channel splice variant is widely expressed, particularly in the nervous system, serving as a representative form for studying the modulation of BK channel gating.
Voltage-clamp recordings were performed at room temperature (22–24 °C) using an inside-out configuration on patches pulled from HEK293 cells. The extracellular solution contained the following (in mM): 2 KCl, 136 KOH, 20 HEPES, 2 MgCl2, adjusted to pH 7.2 with MeSO3H. In order to apply peptide to the extracellular surface, patch electrodes (7–20 MΩ in resistance) were tip-filled with normal extracellular solution and backfilled with extracellular solution containing LS3. Enough normal extracellular solution was included to provide at least five minutes of peptide-free recording (determined by plotting Po vs. time). The intracellular solution (in the bath) contained the following (in mM): 6 KCl, 132 KOH, 20 HEPES, adjusted to pH 7.2 with MeSO3H. To achieve 750 nM free Ca^2+, […] and 5 mM EGTA were included, a ratio verified by measurement with a Ca^2+-sensitive electrode. Voltage-clamp recordings made with an Axopatch 200 A amplifier and custom macros in IgorPro. Analysis was performed with QUB (http://www.qub.buffalo.edu), including Po, mean open time and three component exponential fits to closed dwell times. Group means±SEM for post-peptide measures were plotted relative to pre-peptide values and compared with pre values via planned paired t-tests.

mAcetylcholine M1 = experiment: Competition radioligand binding (NIMH PDSP); settings: radioligand QNB, measured 4 times
mAcetylcholine M3 = experiment: Competition radioligand binding (NIMH PDSP); settings: radioligand QNB, measured 4 times
[4] = test system: mouse inferior colliculus (auditory midbrain); experiment: Sound evoked activity within excitatory receptive field (eRF), systemic administration; settings: for spikes within the eRF, representative eRF: baseline 522 spikes, BF 19.5 kHz
[5] = test system: mouse inferior colliculus (auditory midbrain); experiment: Sound evoked activity within excitatory receptive field (eRF), topical application on dura

In the case of `CC(C)C[C@@H]1NC(=O)CNC(=O)[C@H](CCCNC(=N)N)NC(=O)[C@H](CCCNC(=N)N)NC(=O)[C@@H](N)CSSC[C@@H](C(=O)O)NC(=O)[C@H](C(C)C)NC(=O)[C@H](CCC(N)=O)NC(=O)[C@H](C(C)C)NC1=O` [LS3] (H-CRRGLVQVC-OH; disulfide 1-9; N-terminus and C-terminus assumed), the “effect on crawl speed (LS3 reduced crawl speed for wild type but not slo-1(null))” value ([1]; 75 µM LS3 vs. vehicle) is reported as “not”, the “effect on crawl speed (LS3 reduced crawl speed for wild type but not slo-1(null))” value ([1]; 250 µM LS3 vs. vehicle) is reported as “not” and the “effect on crawl speed (LS3 reduced crawl speed for wild type but not slo-1(null))” value ([1]; 750 µM LS3 vs. vehicle) is reported as “not”. The “effect on crawl speed” value ([1]; slo-1 null, LS3 in NGM, 30 min bath, normalized to vehicle-treated controls) was “did not significantly slow”, the “LS3-induced slowing response (reduction in crawl speed)” value [2] was “rescued” and the “effect on Po (post vs. pre peptide)” value ([3]; 50 pM LS3, extracellular, any voltage (60–100 mV), 750 nM Ca) was “did not significantly alter the Po”. For the same molecule, the “effect on Po (post vs. pre peptide)” value ([3]; 500 pM to 500 nM LS3, extracellular, each holding potential 60–100 mV, 750 nM Ca, N = 6–12) was “reduced the Po at each holding potential”, the “effect on Po (post vs. pre peptide)” value ([3]; 50 nM LS3 applied to extracellular (external) side, each voltage, p < 0.05, N = 6) was “reduction in Po at each voltage; also recorded: significantly reduce Po at all voltages” and the “short closed dwell times” value ([3]; 500 nM LS3, 750 nM Ca, three-component exponential fits, component 0, N = 8) was “remained unchanged; also recorded: did not change significantly”. For the same molecule, the “long closed dwell times” value ([3]; 500 nM LS3, 750 nM Ca, three-component exponential fits, component 2, p < 0.05, N = 8) was “increased; also recorded: lengthened”, the “post Po relative to pre” value ([3]; 500 nM LS3, 40 mV, p < 0.05) was 0.54 ± 0.17 and the “single channel conductance post LS3” value ([3]; 500 nM LS3, 60 mV, pre peptide 282 ± 4.62 pS (remained stable)) was 287 ± 5.12 pS. For the same molecule, the mean open times ([3]; 500 nM LS3, all holding potentials 60–100 mV, 750 nM Ca, p < 0.05, N = 8) was “decreasing mean open times at all holding potentials; also recorded: shortened openings”, the “reduction of probability of channel opening (Po)” value ([3]; 60 mV, high picomolar to nanomolar LS3, extracellular, intracellular calcium 750 nM) was ~ 60% and the “apparent affinity compared with known blockers” value ([3]; LS3 vs. known high affinity BK channel toxins / Kv peptide toxins or paxilline) was “higher than known high affinity BK channel toxins; also recorded: higher apparent affinity than Kv peptide toxins or paxilline”. For the same molecule, the “mode of action on channel” value ([3]; from change in mean open and closed times, rather than blocking the pore) was “modulates channel gating”, the “IC50 for reduction of BK channel open probability (Po)” value ([3]; inside-out patches, peptide applied to extracellular side, intracellular calcium 750 nM, 22–24 °C, approximate, in words) was “mid-picomolar range” and the “% inhibition by 10 µM LS3” value (mAcetylcholine M1) was 12.6%. For the same molecule, the “% inhibition by 10 µM LS3” value (mAcetylcholine M3) was 11.5%, the “effect on sound evoked activity in the inferior colliculus” value ([4]; 0.3 mg/kg I.P. LS3) was “suppressed sound evoked activity in the inferior colliculus; also recorded: suppresses sound evoked activity in the IC when administered systemically” and the “spikes within the eRF, representative eRF” value ([4]; systemic (0.3 mg/kg I.P.) LS3, 2 hrs) was 41 spikes. For the same molecule, the “spikes within the eRF, representative eRF” value ([4]; systemic (0.3 mg/kg I.P.) LS3, 5 hours) was 37 spikes, the “reduction in spikes within the eRF” value ([4]; systemic (0.3 mg/kg I.P.) LS3, over 2 hours, mean, 47 units from 5 CBA mice) was 85% and the “decrease in sound evoked activity within the receptive field, representative eRF” value ([4]; systemic (0.3 mg/kg I.P.) LS3, over 5 hours) was 93%. The “time course of driven activity” value ([4]; systemic LS3, mean of 49 units, F(32,936) = 7.724 P < 0.0001) was “continued to decline out to 7 hours”, the “mean driven activity within receptive field” value ([5]; 1 μL of 10 μM LS3, 120 minutes post application, baseline 450 spikes, mean, 49 units) was ~ 225 spikes and the “reduction of mean sound evoked activity” value ([5]; 1 μL of 10 μM LS3, after 3 hours, 47 recording sites, N = 5 mice) was ~ 70%. The “mean sound evoked activity” value ([5]; 1 μL of 10 μM LS3, after 3 hours, baseline 430, 47 recording sites, N = 5 mice) was 130 spikes, the “time course of driven activity” value ([5]; 1 μL of 10 μM LS3, mean of 49 units, F(5,206) = 5.085 P = 0.0002) was “continued to decline out to 4 hours” and the “reduction of sound evoked driven activity within the RF” value ([5]; 1 μL of 10 μM stock, from baseline pre-peptide, Fig. 5A,B representative eRFs) was “approximately 50%”.
